Assay results reported in the supplement of paper PMC10307832.

Experiments:
Assay in all cases: relative viability (nuclei count vs DMSO), 5 days (fraction); higher = more cells survive
GSK-J4 + Crizotinib = compound: CCOC(=O)CCNc1cc(N2CCc3ccccc3CC2)nc(-c2ccccn2)n1 [GSK-J4] + C[C@@H](Oc1cc(-c2cnn(C3CCNCC3)c2)cnc1N)c1c(Cl)ccc(F)c1Cl [Crizotinib] (partner 1 µM)
How it was run: (§1)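 Lung cancer cell lines were pin-tool dosed in 1536-well plates on the day after seeding, with either a lone drug or a fixed anchor-drug dose plus five library-drug doses (not always all listed) in √10 steps. Nuclei were counted on 4× images after 5 days. Relative viability is the ratio of treated-well to vehicle-well nuclei counts, with each value a median of duplicate plates.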

GSK-J4 + Linsitinib = compound: CCOC(=O)CCNc1cc(N2CCc3ccccc3CC2)nc(-c2ccccn2)n1 [GSK-J4] + C[C@]1(O)C[C@@H](c2nc(-c3ccc4ccc(-c5ccccc5)nc4c3)c3c(N)nccn32)C1 [Linsitinib] (partner 1 µM)
How it was run: as §1

AZ3146 + Palbociclib = compound: CN1CCC(CC1)OC2=CC(=C(C=C2)NC3=NC=C4C(=N3)N(C(=O)N4C)C5CCCC5)OC [AZ3146] + CC(=O)c1c(C)c2cnc(Nc3ccc(N4CCNCC4)cn3)nc2n(C2CCCC2)c1=O [Palbociclib] (partner 0.5 µM)
How it was run: as §1

AZ3146 + Decitabine = compound: CN1CCC(CC1)OC2=CC(=C(C=C2)NC3=NC=C4C(=N3)N(C(=O)N4C)C5CCCC5)OC [AZ3146] + Nc1ncn([C@H]2C[C@H](O)[C@@H](CO)O2)c(=O)n1 [Decitabine] (partner 2 µM)
How it was run: as §1

Cell Line	relative viability (GSK-J4 + Crizotinib; first compound 0.5 µM)	relative viability (GSK-J4 + Crizotinib; first compound 1.581 µM)	relative viability (GSK-J4 + Crizotinib; first compound 15.81 µM)	relative viability (GSK-J4 + Crizotinib; first compound 50 µM)	relative viability (GSK-J4 + Linsitinib; first compound 0.5 µM)	relative viability (GSK-J4 + Linsitinib; first compound 1.581 µM)	relative viability (GSK-J4 + Linsitinib; first compound 15.81 µM)	relative viability (GSK-J4 + Linsitinib; first compound 50 µM)	relative viability (AZ3146 + Palbociclib; first compound 0.08 µM)	relative viability (AZ3146 + Palbociclib; first compound 0.253 µM)	relative viability (AZ3146 + Palbociclib; first compound 0.8 µM)	relative viability (AZ3146 + Palbociclib; first compound 2.53 µM)	relative viability (AZ3146 + Palbociclib; first compound 8 µM)	relative viability (AZ3146 + Decitabine; first compound 0.08 µM)	relative viability (AZ3146 + Decitabine; first compound 0.253 µM)	relative viability (AZ3146 + Decitabine; first compound 0.8 µM)	relative viability (AZ3146 + Decitabine; first compound 2.53 µM)	relative viability (AZ3146 + Decitabine; first compound 8 µM)	relative viability (GSK-J4 + Crizotinib; first compound 5 µM)	relative viability (GSK-J4 + Linsitinib; first compound 5 µM)
HCC-366	0.523	0.405	0.395	0.445	0.622	0.547	0.478	0.437	0.312	0.398	0.419	0.391	0.271	0.342	0.39	0.296	0.352	0.321		
HCC-827	0.963	0.931	0.91	0.848	0.932	0.955	0.902	0.87	0.544	0.471	0.467	0.421	0.516	0.308	0.364	0.31	0.3	0.347	0.933	0.889
HOP-62	0.798	1	0.994	0.847	0.952	0.78	0.835	0.855	0.357	0.5	0.438	0.436	0.447	0.22	0.195	0.207	0.248	0.203	0.965	0.83
IA-LM	0.793	0.745	0.691	0.0902	0.556	0.288	0.463	0.201											0.867	0.634
LC-2-ad	0.554	0.426	0.41	0.427	0.795	0.831	0.769	0.839	0.419	0.546	0.475	0.455	0.453	0.729	0.783	0.728	0.781	0.716	0.375	0.794
LCLC-97TM1			0.269	0.323			0.23	0.146	0.245	0.247	0.232	0.225	0.188	0.209	0.254	0.225	0.222	0.248	0.455	0.213
LCLC-103H	1.01	0.811	0.916	0.988	0.914	0.978	1.06	1.04	0.415	0.458	0.495	0.446	0.444	0.675	0.732	0.742	0.741	0.729	1.18	1.12
LK-2	0.256	0.212	0.191	0.244	0.69	0.449	0.537	0.602			0.633	0.591	0.71		0.372	0.284	0.319	0.337	0.203	0.774
LOU-NH91	0.756	0.711	0.695	0.712	1	0.928	0.817	1	0.513	0.582	0.512	0.539	0.537	0.816	0.77	0.886	0.829	0.783	0.674	0.804
